# Results published in patent publication US20160120848A1, “SPECIFIC CANCER TREATMENT REGIMES WITH GANETESPIB” (SYNTA PHARMACEUTICALS CORP., priority 2013, published 2016).
# Key:
# [1] = system: advanced solid tumor malignancies; assay: Phase I study of ganetespib monotherapy in advanced solid tumor malignancies; assay type: in vivo, patients; conditions: ganetespib monotherapy 75 or 150 mg/m^2, Days 1 and 15 of 3-week cycle
# Experimental: A total of 3 (three) cohorts are treated in this study. All patients are hospitalized for the duration of Cycle 1, Days 1 through 21.
# (§1) In the first cohort (Cohort 1), patients with advanced solid tumor malignancies are treated with 75 mg/m^2 of ganetespib monotherapy. In the second cohort (Cohort 2), patients with advanced solid tumor malignancies are treated with 150 mg/m^2 of ganetespib monotherapy. In the third cohort (Cohort 3), patients with advanced NSCLC are treated with ganetespib (150 mg/m^2) in combination with docetaxel (75 mg/m^2). In the case of intolerability of the third cohort's combination regimen, in a fourth cohort (Cohort 4), patients with advanced NSCLC are treated with ganetespib (150 mg/m^2) in combination with docetaxel (60 mg/m^2).
# Each cohort enrolls 3 to 6 patients, depending on toxicity and the inclusion of Cohort 4. A total of 9 patients are enrolled at the recommended combination dose level to better characterize the safety and PK profiles. Each cohort consists of a maximum of 6 evaluable patients, except for the recommended combination dose level, which enrolls a total of 9 patients. Patients who discontinue from the study for reasons other than DLT (dose-limiting toxicity) before completing Cycle 1 are replaced. For all cohorts, patients are hospitalized for the duration of Cycle 1, Days 1 through 21. […]
# [2] = system: advanced non-small-cell lung cancer (NSCLC) of non-squamous histology; assay: Phase I study of ganetespib in combination with docetaxel in advanced NSCLC; assay type: in vivo, patients; conditions: ganetespib 150 mg/m^2 in combination with docetaxel (75 or 60 mg/m^2)
# Experimental: as §1
# Patients with advanced NSCLC, excluding patients with squamous cell histology, are administered ganetespib and docetaxel in Cohort 3.
# The purpose of this cohort is to explore the PK and tolerability of ganetespib in combination with docetaxel. Patients enrolled in this cohort receive ganetespib 150 mg/m^2 in combination with docetaxel 75 mg/m^2.
# On Day 1 of each 3-week treatment cycle, ganetespib and docetaxel are administered as separate 1-hour intravenous infusions. Administration of ganetespib precedes the administration of docetaxel. There is a 1-hour “rest” period following the end of the ganetespib infusion and prior to docetaxel infusion.
# On Day 15, patients receive 150 mg/m^2 single-agent ganetespib administered via a 1-hour intravenous infusion. […]
structure (smiles),measurement,setting,value
CC(C)c1cc(-c2n[nH]c(=O)n2-c2ccc3c(ccn3C)c2)c(O)cc1O [ganetespib],efficacy,[1],efficacious
same,safety profile,[1],good safety profile
same,efficacy,[2],efficacious
